Laboratory results reported in US20230099344A1, “COMPOUNDS AND METHODS FOR THE TARGETED DEGRADATION OF IRAK-4” (Arvinas Operations, Inc., priority 2021, published 2023).

molecular target: T1, IRAK-4 (Homo sapiens, UniProt Q9NWZ3); test: IRAK-4 ELISA, PBMC degradation; type: cell-based; design: endogenous in cells; host or cells: PBMC; conditions: treated overnight
T1 sequence (Q9NWZ3 1-460): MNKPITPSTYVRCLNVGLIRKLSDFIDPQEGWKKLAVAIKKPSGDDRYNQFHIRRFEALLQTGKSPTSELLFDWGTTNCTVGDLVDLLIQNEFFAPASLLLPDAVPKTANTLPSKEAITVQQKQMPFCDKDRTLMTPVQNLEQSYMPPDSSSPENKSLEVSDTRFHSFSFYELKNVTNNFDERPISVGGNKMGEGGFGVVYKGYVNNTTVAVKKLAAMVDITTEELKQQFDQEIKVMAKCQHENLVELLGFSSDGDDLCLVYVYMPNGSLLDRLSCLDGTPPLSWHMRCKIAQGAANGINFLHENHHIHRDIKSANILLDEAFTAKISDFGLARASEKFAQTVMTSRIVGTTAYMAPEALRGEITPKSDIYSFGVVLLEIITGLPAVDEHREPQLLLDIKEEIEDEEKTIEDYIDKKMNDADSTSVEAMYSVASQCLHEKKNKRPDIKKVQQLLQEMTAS
Procedure, shortened: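 ELISA quantification of cellular IRAK-4 after compound treatment overnight; PBMC were plated at 2×10^6/ml, OCI-Ly10 at 1×10^6/ml.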

SMILES | DC50 [nM] | Dmax [%] | PBMC DC90 | PBMC Dmax
CC(C)Oc1cc2nn(C3CCN(CC4(F)CN(c5cc6c(cc5F)C(=O)N(C5CCC(=O)NC5=O)C6=O)C4)CC3)cc2cc1NC(=O)c1cnn2cccnc12 (stereo not drawn) [Example 189] | < 1 | ≥ 90 | A (A represents a DC90 value <10.0 nM) | –
O=C1CCC(N2C(=O)c3ccc(N4CCC(CN5CCC(N6Cc7cc(NC(=O)c8cnn9cccnc89)c(OC8CC8)cc7C6=O)CC5)CC4)cc3C2=O)C(=O)N1 (stereo not drawn) [Example 27] | < 1 | ≥ 90 | A (A represents a DC90 value <10.0 nM) | –
O=C1CCC(N2C(=O)c3ccc(N4CC(F)(CN5CCC(N6Cc7cc(NC(=O)c8cnn9cccnc89)c(OC8CCC8)cc7C6=O)CC5)C4)cc3C2=O)C(=O)N1 (stereo not drawn) [Example 215] | 1 to 5 | 70 to 80 | A (A represents a DC90 value <10.0 nM) | –
CC(C)Oc1cc2c(cc1NC(=O)c1cnn3cccnc13)CN(C1CCC(N3CCC(c4ccc5c(c4)C(=O)N(C4CCC(=O)NC4=O)C5=O)CC3)CC1)C2=O (stereo not drawn) [Example 25] | 1 to 5 | ≥ 90 | A (A represents a DC90 value <10.0 nM) | –
O=C1CCC(N2Cc3cc(N4CC(F)(CN5CCC(N6Cc7cc(NC(=O)c8cnn9cccnc89)c(OCC8CC8)cc7C6=O)CC5)C4)ccc3C2=O)C(=O)N1 (stereo not drawn) [Example 104] | < 1 | 70 to 80 | A (A represents a DC90 value <10.0 nM) | –
CC(C)(C)Oc1nc2nn(C3CCN(CC4(F)CN(c5ccc6c(c5)C(=O)N(C5CCC(=O)NC5=O)C6=O)C4)CC3)cc2cc1NC(=O)c1cnn2cccnc12 (stereo not drawn) [Example 220] | 1 to 5 | 80 to 90 | C (C represents a DC90 value ≥25.0 nM and <50 nM) | –
CC(C)Oc1cc2c(cc1NC(=O)c1cnn3cccnc13)CN(C1CCC(N(C)C3CN(c4ccc(C(=O)NC5CCC(=O)NC5=O)c(F)c4)C3)CC1)C2=O (stereo not drawn) [Example 328] | < 1 | ≥ 90 | A (A represents a DC90 value <10.0 nM) | –
COc1cc(N2CC(CN3CCC(N4Cc5cc(NC(=O)c6cnn7cccnc67)c(OC(C)C)nc5C4=O)CC3)C2)cc2c1C(=O)N(C1CCC(=O)NC1=O)C2 (stereo not drawn) [Example 403] | 1 to 5 | ≥ 90 | C (C represents a DC90 value ≥25.0 nM and <50 nM) | –
COc1cc(N2CC(CN3CCC(N4Cc5cc(NC(=O)c6cnn7cccnc67)c(OC(C)C)nc5C4=O)CC3)C2)cc2c1C(=O)N(C1CCC(=O)NC1=O)C2=O (stereo not drawn) [Example 397, N-(6-(1-((1-(2-(2,6-dioxopiperidin-3-yl)-7-methoxy-1,3-dioxoisoindolin-5-yl)azetidin-3-yl)methyl)piperidin-4-yl)-2-isopropoxy-7-oxo-6,7-dihydro-5H-pyrrolo[3,4-b]ipyridin-3-yl)pyrazolo [1,5-a]pyrimidine-3-carboxamide] | < 1 | – | A (A represents a DC90 value <10.0 nM) | A (A represents a Dmax value ≥90)
CC(C)Oc1cc2c(cc1NC(=O)c1cnn3cccnc13)CN(C1CCN(C[C@H]3CN(c4ccc5c(c4)C(=O)N(C4CCC(=O)NC4=O)C5=O)CCO3)CC1)C2=O (stereo partly drawn) [Example 79] | < 1 | ≥ 90 | A (A represents a DC90 value <10.0 nM) | –
COc1cc(N2CC(CN3CCC(n4cc5cc(NC(=O)c6cnn7cccnc67)c(OCC6CC6)cc5n4)CC3)C2)cc2c1C(=O)N(C1CCC(=O)NC1=O)C2 (stereo not drawn) [Example 124] | < 1 | ≥ 90 | A (A represents a DC90 value <10.0 nM) | –
O=C1CCC(N2Cc3cc(N4CC(N5CCC(N6Cc7cc(NC(=O)c8cnn9cccnc89)c(N8CCOCC8)nc7C6=O)CC5)C4)ccc3C2=O)C(=O)N1 (stereo not drawn) [Example 404, N-[6-[1-[1-[2-(2,6-dioxo-3-piperidyl)-1-oxo-isoindolin-5-yl]azetidin-3-yl]-4-piperidyl]-2-morpholino-7-oxo-5H-pyrrolo[3,4-b]pyridin-3-yl]pyrazolo[1,5-a]pyrimidine-3-carboxamide] | ≥ 10 | 80 to 90 | D (D represents a DC90 value ≥50 nM) | –
CC(C)Oc1cc2nn(C3CCN(CC4(C)CN(c5ccc6c(c5)C(=O)N(C5CCC(=O)NC5=O)C6=O)C4)CC3)cc2cc1NC(=O)c1cnn2cccnc12 (stereo not drawn) [Example 192] | 1 to 5 | 80 to 90 | A (A represents a DC90 value <10.0 nM) | –
O=C1CCC(N2C(=O)c3ccc(N4CC(F)(CN5CCC(N6Cc7cc(NC(=O)c8cnn9cccnc89)c(N8CCOCC8)cc7C6=O)CC5)C4)cc3C2=O)C(=O)N1 (stereo not drawn) [Example 101] | 1 to 5 | 70 to 80 | B (B represents a DC90 value ≥10.0 nM and <25.0 nM) | –
CC(C)Oc1nc2c(cc1NC(=O)c1cnn3cccnc13)CN(C1CCN(CCc3ccc4c(c3)CN(C3CCC(=O)NC3=O)C4=O)CC1)C2=O (stereo not drawn) [Example 399] | 1 to 5 | ≥ 90 | B (B represents a DC90 value ≥10.0 nM and <25.0 nM) | –
O=C1CCC(N2C(=O)c3ccc(N4CC(F)(CN5CCC(n6cc7cc(NC(=O)c8cnn9ccc(N%10CCOCC%10)nc89)c(OCC8CC8)cc7n6)CC5)C4)cc3C2=O)C(=O)N1 (stereo not drawn) [Example 233] | 5 to 10 | 80 to 90 | C (C represents a DC90 value ≥25.0 nM and <50 nM) | –
CC(C)Oc1cc2c(cc1NC(=O)c1cnn3cccnc13)CN(C1CCN(CC3CN(c4ccc(C(=O)NC5CCC(=O)NC5=O)c(F)c4)C3)CC1)C2=O (stereo not drawn) [Example 292] | < 1 | ≥ 90 | A (A represents a DC90 value <10.0 nM) | –
Cn1c(=O)n(C2CCC(=O)NC2=O)c2cccc(N3CC(CN4CCC(n5cc6cc(NC(=O)c7cnn8cccnc78)c(C7CC7)cc6n5)CC4)C3)c21 (stereo not drawn) [Example 383] | < 1 | ≥ 90 | A (A represents a DC90 value <10.0 nM) | –
CC(C)Oc1nc2c(cc1NC(=O)c1cnn3cccnc13)CN(C1CCN(CC3CN(c4ccc5c(c4)CN(C4CCC(=O)NC4=O)C5=O)C3)CC1)C2=O (stereo not drawn) [Example 401] | 1 to 5 | ≥ 90 | B (B represents a DC90 value ≥10.0 nM and <25.0 nM) | –
CC(C)Oc1cc2c(cc1NC(=O)c1cnn3cccnc13)CN(C1CCN(C[C@@H]3CCN(c4ccc5c(c4)C(=O)N(C4CCC(=O)NC4=O)C5=O)C3)CC1)C2=O (stereo partly drawn) [Example 80] | 1 to 5 | ≥ 90 | A (A represents a DC90 value <10.0 nM) | –
O=C1CCC(N2C(=O)c3ccc(N4CC(F)(CN5CCC(N6Cc7cc(NC(=O)c8cnn9cccnc89)c(OCC(F)F)cc7C6=O)CC5)C4)cc3C2=O)C(=O)N1 (stereo not drawn) [Example 102] | 1 to 5 | 70 to 80 | C (C represents a DC90 value ≥25.0 nM and <50 nM) | –
CC(C)Oc1cc2c(cc1NC(=O)c1cnn3cccnc13)CN(C1CCN(CC3(O)CN(c4ccc5c(c4)C(=O)N(C4CCC(=O)NC4=O)C5=O)C3)CC1)C2=O (stereo not drawn) [Example 61] | < 1 | ≥ 90 | A (A represents a DC90 value <10.0 nM) | –
CCN(C1CN(c2ccc3c(c2)C(=O)N(C2CCC(=O)NC2=O)C3=O)C1)[C@H]1CC[C@H](n2cc3cc(NC(=O)c4cnn5cccnc45)c(OC(C)C)cc3n2)CC1 (stereo partly drawn) [Example 319] | 1 to 5 | 80 to 90 | A (A represents a DC90 value <10.0 nM) | –
CC(C)Oc1cc2c(cc1NC(=O)c1cnn3cccnc13)CN([C@H]1CC[C@@H](N3CC4(CN(c5ccc6c(c5)CN(C5CCC(=O)NC5=O)C6=O)C4)C3)CC1)C2=O (stereo partly drawn) [Example 277] | < 1 | ≥ 90 | A (A represents a DC90 value <10.0 nM) | –
O=C1CCC(N2Cc3cc(N4CC(F)(CN5CCC(n6cc7cc(NC(=O)c8cnn9cccnc89)c(OC8CCC8)cc7n6)CC5)C4)ccc3C2=O)C(=O)N1 (stereo not drawn) [Example 216] | < 1 | – | A (A represents a DC90 value <10.0 nM) | B (B represents a Dmax value ≥80 and <90)
CC(C)Oc1cc2c(cc1NC(=O)c1cnn3cccnc13)CN([C@H]1CC[C@H](N3CCN(c4ccc5c(c4)CN(C4CCC(=O)NC4=O)C5=O)CC3)CC1)C2=O (stereo partly drawn) [Example 273, N-(2-((1r,4r)-4-(4-(2-(2,6-dioxopiperidin-3-yl)-1-oxoisoindolin-5-yl)piperazin-1-yl)cyclohexyl)-6-isopropoxy-1-oxoisoindolin-5-yl)pyrazolo[1,5-a]pyrimidine-3-carboxamide] | < 1 | ≥ 90 | A (A represents a DC90 value <10.0 nM) | –
O=C1CCC(N2C(=O)c3ccc(N4CC(N5CCC(N6Cc7cc(NC(=O)c8cnn9cccnc89)c(N8CCOCC8)nc7C6=O)CC5)C4)cc3C2=O)C(=O)N1 (stereo not drawn) [Example 407] | < 1 | ≥ 90 | A (A represents a DC90 value <10.0 nM) | –
CC(C)Oc1cc2nn(C3CCN(CCC4(F)CN(c5ccc6c(c5)C(=O)N(C5CCC(=O)NC5=O)C6=O)C4)CC3)cc2cc1NC(=O)c1cnn2cccnc12 (stereo not drawn) [Example 139] | < 1 | 80 to 90 | A (A represents a DC90 value <10.0 nM) | –
O=C1CCC(N2C(=O)c3ccc(N4CCC(CN5CCC(n6cc7cc(NC(=O)c8cnn9cccnc89)c(OCC(F)F)cc7n6)CC5)CC4)cc3C2=O)C(=O)N1 (stereo not drawn) [Example 148] | < 1 | 80 to 90 | A (A represents a DC90 value <10.0 nM) | –
